Test results published in patent publication US20260272895A1, “METHODS AND KITS FOR DELIVERY OF COMPOUNDS INTO CELLS” (Yale University, priority 2023, published 2026).

What was measured:
Slco1a4 = biological target: T1, Slco1a4 (Mus musculus, UniProt Q9EP96); experiment: Compound uptake in HEK293 cells transfected with Slco1a4; assay type: cell-based; parameters: FLAG; expressed in transfected cells; settings: concentration not given
T1 sequence (Q9EP96 1-670): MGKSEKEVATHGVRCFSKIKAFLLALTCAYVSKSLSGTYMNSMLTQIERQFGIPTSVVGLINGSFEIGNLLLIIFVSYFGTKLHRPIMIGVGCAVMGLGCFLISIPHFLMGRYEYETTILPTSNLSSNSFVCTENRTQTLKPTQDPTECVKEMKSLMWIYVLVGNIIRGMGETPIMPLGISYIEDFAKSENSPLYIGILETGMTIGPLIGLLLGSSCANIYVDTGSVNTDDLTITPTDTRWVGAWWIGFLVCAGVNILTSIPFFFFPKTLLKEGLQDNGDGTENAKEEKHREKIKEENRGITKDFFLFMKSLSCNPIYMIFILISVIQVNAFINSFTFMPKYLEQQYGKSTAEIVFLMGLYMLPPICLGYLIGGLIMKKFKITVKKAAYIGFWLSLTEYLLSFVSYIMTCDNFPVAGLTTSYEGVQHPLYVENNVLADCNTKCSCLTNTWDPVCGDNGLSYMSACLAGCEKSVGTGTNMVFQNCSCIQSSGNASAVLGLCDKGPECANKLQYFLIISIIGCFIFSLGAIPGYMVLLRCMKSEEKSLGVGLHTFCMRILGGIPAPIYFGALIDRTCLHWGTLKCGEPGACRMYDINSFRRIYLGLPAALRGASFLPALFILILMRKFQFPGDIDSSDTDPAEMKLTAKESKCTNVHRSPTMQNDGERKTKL
Procedure: (§1) HEK293 cells are cultured and seeded at ~60% confluency in 24-well plates and are transiently transfected with 250 ng of a candidate transporter and 1 μL transfection reagent (JetPRIME). After 2 days, cells are washed and novel fluorescent probes at different concentrations are added to the transport medium and incubated at 37° C., for at least 30 minutes. To terminate the transport, cells are washed with PBS and fixed with 4% paraformaldehyde. The colocalization of probe uptake and cells expressing the transporters is investigated by immunostaining the transporter which has a fused FLAG tag, using anti-FLAG 488. Before confocal imaging, nuclei are labeled with Hoechst 33342 and cells are mounted and imaged on a Leica SP8 confocal microscope.
(§2) For in vitro experiments, HEK293 cells were cultured and seeded in 24-well plates, reaching approximately 60% confluency. For transient transfection, 250 ng of a candidate transporter plasmid and 1 μL of transfection reagent (JetPRIME) were added to the cells. After a 2-day incubation period, the cells were washed, and novel fluorescent probes were introduced into the transport medium at various concentrations. The cells were then incubated at 37° C., for a minimum of 30 minutes to allow for uptake. To stop the transport process, the cells were washed with PBS and fixed using 4% paraformaldehyde. Immunostaining of the transporter, which was fused with a FLAG tag, was performed using an anti-FLAG 488 antibody. Before confocal imaging, the cell nuclei were labeled with Hoechst 33342. Finally, the cells were mounted and imaged using a Leica SP8 confocal microscope.

SLCO1A2 = biological target: T2, SLCO1A2 (Homo sapiens, UniProt P46721); experiment: Compound uptake in HEK293 cells transfected with SLCO1A2; assay type: cell-based; parameters: FLAG; settings: concentration not given
T2 sequence (P46721 1-670): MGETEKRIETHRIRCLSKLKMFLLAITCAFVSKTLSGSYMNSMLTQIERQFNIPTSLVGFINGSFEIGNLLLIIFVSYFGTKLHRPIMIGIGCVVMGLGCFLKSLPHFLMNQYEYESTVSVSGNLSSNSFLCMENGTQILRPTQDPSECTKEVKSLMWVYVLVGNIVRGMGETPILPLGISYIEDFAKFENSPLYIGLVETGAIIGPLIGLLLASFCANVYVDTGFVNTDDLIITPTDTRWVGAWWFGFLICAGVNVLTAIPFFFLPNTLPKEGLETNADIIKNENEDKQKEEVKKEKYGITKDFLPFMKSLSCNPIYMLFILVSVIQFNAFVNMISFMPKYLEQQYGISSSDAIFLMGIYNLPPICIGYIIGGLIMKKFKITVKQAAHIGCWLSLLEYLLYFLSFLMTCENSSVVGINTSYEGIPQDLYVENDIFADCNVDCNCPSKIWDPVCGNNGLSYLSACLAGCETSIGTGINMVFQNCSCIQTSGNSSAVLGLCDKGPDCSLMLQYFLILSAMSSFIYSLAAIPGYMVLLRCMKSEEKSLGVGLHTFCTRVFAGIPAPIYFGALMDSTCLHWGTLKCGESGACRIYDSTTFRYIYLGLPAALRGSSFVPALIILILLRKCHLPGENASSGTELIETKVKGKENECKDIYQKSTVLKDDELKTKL
Procedure: as §1, §2

## CCN(CC)c1ccc2c(-c3ccc(S(=O)(=O)NCCNC(=O)c4ccc(Nc5nc(N(C)[C@H]6CN(C(=O)CC#N)CC[C@H]6C)c6cc[nH]c6n5)cc4)cc3S(=O)(=O)[O-])c3ccc(=[N+](CC)CC)cc-3oc2c1 [Compound 53, 5-(N-(2-(4-((4-(((3R,4R)-1-(2-cyanoacetyl)-4-methylpiperidin-3-yl)(methyl)amino)-7H-pyrrolo[2,3-d]pyrimidin-2-yl)amino)benzamido)ethyl)sulfamoyl)-2-(6-(diethylamino)-3-(diethyliminio)-3H-xanthen-9-yl)benzenesulfonate]
Slco1a4
  uptake in Slco1a4 transfected HEK293 cells: is taken up
SLCO1A2
  uptake in SLCO1A2 transfected HEK293 cells: is taken up
